Results as given in US8637501B2, “Azinone-substituted azepino[b]indole and pyrido-pyrrolo-azepine MCH-1 antagonists, methods of making, and use thereof” (Albany Molecular Research, Inc., priority 2009, dated 2014).
Counter-ions that a name gives are not always drawn.

Target: human MCH-1 receptor (Homo sapiens (Human), UniProt Q99705)
Assay: Binding Assay for Human Melanin-Concentrating Hormone (MCH-1) Receptor
Details: radioligand displacement, membranes from CHO-K1 cells expressing human MCH-1 receptor; Ki from IC50 by Cheng Prusoff equation; read-out: MCH1 Ki
Protocol: Binding Assay for Human Melanin-Concentrating Hormone (MCH-1) Receptor
Evaluation of the affinity of compounds for the human MCH-1 receptor was accomplished using 4-(3,4,5-tritritiumbenzyloxy)-1-(1-(2-(pyrrolidin-1-yl)ethyl)-1H-indazol-5-yl)pyridin-2(1H)-one and membranes prepared from stable CHO-K1 cells expressing the human MCH-1 receptor obtained from Euroscreen (Batch 1138). Cell membrane homogenates (8.92 μg protein) were incubated for 60 min at 25° C. with 1.4 nM of the [^3H]-labeled compound in the absence or presence of the test compound in 50 mM Tris-HCl buffer, pH 7.4. Nonspecific binding was determined in the presence of 50 μM 1-(5-(4-cyanophenyl)bicyclo[3.1.0]hexan-2-yl)-3-(4-fluoro-3-(trifluoromethyl)phenyl)-1-(3-(4-methylpiperazin-1-yl)propyl)urea. Following incubation, the samples were filtered rapidly under vacuum through Skatron 11731 filters, pre-soaked in 0.5% polyethylenimine, and washed with ice-cold 50 mM Tris-HCl buffer, pH 7.4, (wash setting 9,9,0) using a Skatron cell harvester. The filters were counted for radioactivity in a liquid scintillation counter (Tri-Carb 2100TR, Packard) using a scintillation cocktail (Ultima Gold MV, Perkin Elmer).
The results are expressed as a percent inhibition of the control radioligand specific binding. The IC50 value (concentration causing a half-maximal inhibition of control specific binding) and Hill coefficient (nH) were determined by non-linear regression analysis of the competition curve using Hill equation curve fitting. The inhibition constant (Ki) was calculated from the Cheng Prusoff equation: (Ki=IC50/(1+(L/KD)), where L=concentration of radioligand in the assay, and KD=affinity of the radioligand for the receptor.

Sequence of human MCH-1 receptor (Q99705 whole entry): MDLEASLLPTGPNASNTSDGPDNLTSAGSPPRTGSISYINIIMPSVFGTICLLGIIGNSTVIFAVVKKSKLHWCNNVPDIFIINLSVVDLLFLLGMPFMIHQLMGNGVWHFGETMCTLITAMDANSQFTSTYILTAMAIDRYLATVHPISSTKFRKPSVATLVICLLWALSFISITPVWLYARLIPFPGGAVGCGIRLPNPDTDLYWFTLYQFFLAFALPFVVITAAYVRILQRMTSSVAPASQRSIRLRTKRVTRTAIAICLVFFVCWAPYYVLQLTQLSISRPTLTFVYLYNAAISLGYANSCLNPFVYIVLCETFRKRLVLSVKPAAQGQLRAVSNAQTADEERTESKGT

Ki [µM]	SMILES
0.0101	Cn1c2c(c3ccc(-n4ccc(-c5ccc(C(F)(F)F)cn5)cc4=O)cc31)CCNCC2 [Example 3, 1-(6-Methyl-1,2,3,4,5,6-hexahydroazepino[4,5-b]indol-8-yl)-4-(5-(trifluoromethyl)pyridin-2-yl)pyridin-2(1H)-one dihydrochloride]
0.0071	Cn1c2c(c3ccc(-n4ccc(-c5ccc(C(F)(F)F)nc5)cc4=O)cc31)CCNCC2 [Example 4, 1-(6-Methyl-1,2,3,4,5,6-hexahydroazepino[4,5-b]indol-8-yl)-4-(6-(trifluoromethyl)pyridin-3-yl)pyridin-2(1H)-one dihydrochloride]
0.0118	Cn1c2c(c3ccc(-n4ccc(OCc5ccc(C(F)(F)F)nc5)cc4=O)cc31)CCNCC2 [Example 5, 1-(6-Methyl-1,2,3,4,5,6-hexahydroazepino[4,5-b]indol-8-yl)-4-((6-(trifluoromethyl)pyridin-3-yl)methoxy)pyridin-2(1H)-one dihydrochloride]
0.131	Cn1c2c(c3ccc(-n4ccc(-c5cnc(C(F)(F)F)nc5)cc4=O)cc31)CCNCC2 [Example 6, 1-(6-Methyl-1,2,3,4,5,6-hexahydroazepino[4,5-b]indol-8-yl)-4-(2-(trifluoromethyl)pyrimidin-5-yl)pyridin-2(1H)-one dihydrochloride]
0.148	O=c1cc(-c2ccc(C(F)(F)F)nn2)ccn1-c1ccc2c3c([nH]c2c1)CCNCC3 [Example 8, 1-(1,2,3,4,5,6-Hexahydroazepino[4,5-b]indol-8-yl)-4-(6-(trifluoromethyl)pyridazin-3-yl)pyridin-2(1H)-one dihydrochloride]
1.37	O=c1cc(-c2ccc(C(F)(F)F)cn2)ccn1-c1ccc2c3c([nH]c2c1)CCNCC3 [Example 9, 1-(1,2,3,4,5,6-Hexahydroazepino[4,5-b]indol-8-yl)-4-(5-(trifluoromethyl)pyridin-2-yl)pyridin-2(1H)-one dihydrochloride]
0.0134	Cn1c2c(c3ccc(-n4ncc(OCc5ccc(F)cn5)cc4=O)cc31)CCNCC2 [Example 10, 5-((5-Fluoropyridin-2-yl)methoxy)-2-(6-methyl-1,2,3,4,5,6-hexahydroazepino[4,5-b]indol-8-yl)pyridazin-3(2H)-one dihydrochloride]
0.049	Cc1ccc(-c2ccn(-c3ccc4c5c(n(C)c4c3)CCNCC5)c(=O)c2)cn1 [Example 11, 1-(6-Methyl-1,2,3,4,5,6-hexahydroazepino[4,5-b]indol-8-yl)-4-(6-methylpyridin-3-yl)pyridin-2(1H)-one dihydrochloride]
0.0114	O=c1cc(-c2ccc(C(F)(F)F)cc2)ccn1-c1ccc2c3c([nH]c2c1)CCNCC3 [Example 12, 1-(1,2,3,4,5,6-Hexahydroazepino[4,5-b]indol-8-yl)-4-(4-(trifluoromethyl)phenyl)pyridin-2(1H)-one hydrochloride]
0.0137	CC(C)N1CCc2c(n(C)c3cc(-n4ccc(OCc5ccc(F)cn5)cc4=O)ccc23)CC1 [Example 16, 4-((5-Fluoropyridin-2-yl)methoxy)-1-(3-isopropyl-6-methyl-1,2,3,4,5,6-hexahydroazepino[4,5-b]indol-8-yl)pyridin-2(1H)-one hydrochloride]
0.242	Cl.Cn1c2c(c3ccc(-n4ccc(-c5ccc(C(F)(F)F)cn5)cc4=O)cc31)CCCNC2 [Example 20, 1-(10-Methyl-1,2,3,4,5,10-hexahydroazepino[3,4-b]indol-8-yl)-4-(5-trifluoromethyl)pyridin-2-yl)pyridin-2(1H)-one hydrochloride]

SMILES	Ki [µM]
Cn1c2c(c3ccc(-n4ccc(-c5ccc(C(F)(F)F)nn5)cc4=O)cc31)CCNCC2 [Example 2, 1-(6-Methyl-1,2,3,4,5,6-hexahydroazepino[4,5-b]indol-8-yl)-4-(6-(trifluoromethyl)pyridazin-3-yl)pyridin-2(1H)-one dihydrochloride]	0.0144
O=c1cc(OCc2ccc(F)cn2)ccn1-c1ccc2c3c([nH]c2c1)CCNCC3 [Example 13, 4-((5-Fluoropyridin-2-yl)methoxy)-1-(1,2,3,4,5,6-hexahydroazepino[4,5-b]indol-8-yl)pyridin-2(1H)-one dihydrochloride]	0.0103
